# Measurements published in US20080119530A1, “Method for treatment and prevention of ultraviolet light induced skin pathologies” (priority 2006, published 2008).
# Tested on: Cdc25a
# Test: Cdc25a immunoblotting in keratinocytes
# Assay type: cell-based, mouse
# Details: vs appropriate controls
# Description: Immunoblotting. Flash frozen skin was ground with a mortar and pestle on dry ice, homogenized in lysis buffer containing 10 mM Tris (pH 7.4), 150 mM NaCl, 10% glycerol, 1% Triton X-100, 1 mM EDTA, Complete Protease Inhibitor Cocktail (Roche, Germany), 1 mM Na3V O4, 1.5 μM EGTA, and 10 μM NaF. Protein was quantified using the Coomassie Brilliant Blue G-250 protein assay (Bio-Rad, Hercules, Calif.). The evenness of loading and transfer was determined by staining with Ponceau S and by actin immunoblotting. […]
# Cell culture. […] Transfection efficiency was quantified by determining the proportion of the cells that incorporated the fluorescent Cy3-conjugated siRNA or GFP one day post-transfection. […]
# In order to understand how Erbb2 regulates S-phase progression following UV irradiation, signaling pathways known to regulate progression into and through S-phase were examined. […] The effect of abrogation of Erbb2 on Cdc25a occurred post-transcriptionally, since no decrease in Cdc25a mRNA was detected in our microarray analysis using the Erbb2 inhibitor (32). […]
smiles,measurement,value
COc1cc(/C=C(\C#N)C(N)=O)cc(CSc2nc3ccccc3s2)c1O [AG825],Cdc25a immunoreactivity,decreased
